In US20250134928A1, “METHODS FOR IDENTIFYING AND USING ALLOGENEIC TUMOR INFILTRATING LYMPHOCYTES TO TREAT CANCER” (OBSIDIAN THERAPEUTICS, INC., priority 2022, published 2025):

Test system: regulated mbIL15 TILs
Test: ACZ dose response of IL15 expression and signaling, phospho-flow cytometry
Format: cell-based, human
Conditions: 18 hours, 0.1-100 μM ACZ
Protocol: Pre-REP TILs were prepared similarly to the methods of Example 1-3 and 9, and unengineered and mbIL15 TIL generated accordingly as described in Examples 1-3 and 9. Engagement of the IL15 signaling pathway results in phosphorylation of signal transducers downstream, including the transcription factor protein STAT5 and ribosomal protein S6. […] Next, the regulated mbIL15 TILs were regulated for 18 hours in the presence of a range of concentrations of ACZ including 0.1, 1, 2.5, 5, 10, 25, 100 μM, as well as vehicle control. The regulated mbIL15 TILs were then collected for staining and FACS analysis.
Briefly, cells were stained using antibodies for CD3, CD4, CD8, IL15 and a Live/Dead marker. Then cells were fixed in 2% formaldehyde (BD Cytofix) and permeabilized using a methanol-based buffer (BD Phospho Perm III Buffer) before staining with antibodies specific for phosphorylated STAT5 (Biolegend) and S6 (Cell Signaling Technology). Cells were acquired on the BD Symphony and analyzed using FlowJo software.

## CC(=O)Nc1nnc(S(N)(=O)=O)s1 [ACZ, acetazolamide]
  staining intensity of pSTAT5 and pS6: increased with higher concentrations of ACZ
Four donors
  ACZ concentration at which mbIL15 expression plateaus: 10 to 25 µM
